The results in this text go back to US20230118795A1, “ARYL OR HETEROARYL PYRIDONE OR PYRIMIDINE DERIVATIVE, PREPARATION METHOD AND USE THEREOF” (SUZHOU ZELGEN BIOPHARMACEUTICALS CO., LTD., priority 2020, published 2023).

One series has as its system NCI-H358 tumor cells. Put plainly: H358 CDX tumor model, anti-tumor activity. It counts as in vivo. As to conditions: NCI-H358 xenograft in nude mice; for TV (mm^3) Day 0: Day 0 (at grouping), 20 mg/Kg intragastric every day; for % TGI / % Tumor Growth / TV (mm^3) Day 20: Day 20, 20 mg/Kg intragastric every day; for efficacy compared with control compound AMG 510 (in words): 20 mg/Kg. The method, then: 100 uL suspension containing 5×10^6 NCI-H358 tumor cells was subcutaneously injected into the right posterior back of nude mice. The health of the mice was monitored daily. Measurements were started when the tumor grew palpable. The tumor volume calculation formula was adopted: 0.5×L×W2, where L and W represented tumor length and width, respectively. The tumor grew to about 200 mm^3, the mice were randomly divided into groups. Mice were intragastrically administrated the corresponding dose (20 mg/Kg) of the compound's solution every day, and their general status was monitored at the same time. The tumor was measured 2 times a week, and the weight was measured twice a week.

A short description of series [1]: Pharmacokinetic test in mice, plasma concentration by LC/MS/MS. It counts as in vivo. Conditions: male ICR mice, 30 mg/kg by gavage, CMC/TW80 carrier, n = 4, mean. As to the method: Evaluation of Pharmacokinetic Tests in Mice
Male ICR mice with a body weight of about 20-30 g, were given 30 mg/kg of solutions of compounds of Examples 10B, 16B, 18A, 63B and 78B of the present invention [CMC/TW80 as carrier] by gavage after fasting overnight. Blood samples were collected at 0.5, 1.0, 2.0, 4.0, 6.0, 8.0, 12 and 24 hours after the compound was administrated, and the concentrations of the compound in plasma were determined by LC/MS/MS.

Series [2] relates to NCI-H358 (KRAS^G12C mutation) cell. Put plainly: Cell assay of antiproliferative activity against NCI-H358 cell (Celltiter-Glo, 5 days). It counts as cell-based. As to conditions: 5 days incubation. The procedure, abridged: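 KRAS G12C NCI-H358 cells were plated in 384-well format and incubated overnight before compound addition. Compounds were added as a 10-point series (diluted from 50 μM to 0.003 μM before transfer) and incubated 5 days. Viability by CellTiter-Glo luminescence, with IC50 from curve fitting.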

Where two headings read alike, the source gives them in different places.

As a reminder, the Cmax is the peak of the concentration-time curve. By IC50 is commonly meant the concentration that inhibits the measured activity by half.

As for `C=CC(=O)N1CCN(c2nc(=O)n(-c3c(C)ccnc3C(C)C)c3nc(-c4c(O)cccc4F)c(F)cc23)[C@@H](C)C1` [AMG510, reference compound], in the series on NCI-H358 tumor cells, the “TV (mm^3) Day 0” value worked out at 196 mm^3, the “% TGI” value is on record as 86.8%, the “% Tumor Growth” value is 117% and the “TV (mm^3) Day 20” value is on record as 437 mm^3.
In series [1], `C=CC(=O)N1C[C@H](C)N(c2nc(=O)n(-c3c(C(C)C)cccc3S(C)(=O)=O)c3nc(-c4c(O)cccc4F)c(F)cc23)C[C@H]1C` (single isomer, unassigned) [Example 78B] displayed an AUC0-t of 688 ng·h/mL and a Cmax of 722 ng/mL. In addition, in the series with NCI-H358 tumor cells, the “efficacy compared with control compound AMG 510 (in words)” value is “better efficacy than the control compound AMG 510”, the “TV (mm^3) Day 0” value was determined as 196 mm^3, the “% TGI” value is reported as 98.5% and the “% Tumor Growth” value was 13%. The “TV (mm^3) Day 20” value with NCI-H358 tumor cells turned out to be 231 mm^3. The compound also showed an IC50 in series [2] of 7 nM.
Consider `C=CC(=O)N1CCN(c2nc(=O)n(-c3c(C(C)C)cccc3S(C)(=O)=O)c3nc(-c4c(O)cccc4F)c(F)cc23)[C@@H](C)C1` (single isomer, unassigned) [Example 10B], for which, in series [1], the AUC0-t was found to be 1548 ng·h/mL and the Cmax worked out at 1570 ng/mL. In series [2], this compound yielded an IC50 of 5 nM.
The like results for `C=CC(=O)N1CCN(c2nc(=O)n(-c3c(C(C)C)ccnc3S(C)(=O)=O)c3nc(-c4c(O)cccc4F)c(F)cc23)[C@@H](C)C1` (single isomer, unassigned) [Example 16B] were, in that order, 46.1 ng·h/mL, 26.1 ng/mL and 7 nM.
Take `C=CC(=O)N1C[C@H](C)N(c2nc(=O)n(-c3c(C4CCC4)cccc3S(C)(=O)=O)c3nc(-c4c(O)cccc4F)c(F)cc23)C[C@H]1C` (single isomer, unassigned) [Example 63B]: in series [1], the AUC0-t was 1540 ng·h/mL and the Cmax was determined as 796 ng/mL. Also, in the series on NCI-H358 tumor cells, the “efficacy compared with control compound AMG 510 (in words)” value is “better efficacy than the control compound AMG 510”, the “TV (mm^3) Day 0” value is 196 mm^3, the “% TGI” value was 97.8% and the “% Tumor Growth” value is 19%. In the series on NCI-H358 tumor cells, the “TV (mm^3) Day 20” value is 263 mm^3. 8 nM corresponded to half-maximal inhibition in series [2] (IC50).
For the compound `C=CC(=O)N1CCN(c2nc(=O)n(-c3c(S(C)(=O)=O)ccnc3C(C)C)c3nc(-c4c(O)cccc4F)c(F)cc23)[C@@H](C)C1` (single isomer, unassigned) [Example 18A], the AUC0-t in series [1] (mouse, po, read-out: AUC0-t) was 219 ng·h/mL. In addition, in series [1] (mouse, po, read-out: Cmax), the Cmax turned out to be 336 ng/mL. This compound yielded an IC50 in series [2] of 13 nM.
In turn, `C=CC(=O)N1CCN(c2nc(=O)n(-c3c(C4CC4)cccc3S(C)(=O)=O)c3nc(-c4c(O)cccc4F)c(F)cc23)[C@@H](C)C1` [Example 6, 4-((S)-4-acryloyl-2-methylpiperazin-1-yl)-1-(2-cyclopropyl-6-(methylsulfonyl)phenyl)-6-fluoro-7-(2-fluoro-6-hydroxyphenyl) pyridino [2,3-d] pyrimidin-2(1H)-one] gave an IC50 in series [2] (Homo sapiens, NCI-H358, 120 h) of 28 nM. This lies in the double-digit nanomolar range.
`C=CC(=O)N1CCN(c2nc(=O)n(-c3c(C)cccc3S(C)(=O)=O)c3nc(-c4c(O)cccc4F)c(F)cc23)[C@@H](C)C1` (single isomer, unassigned) [Example 87A] showed an IC50 in series [2] below 30 nM.
Turning to `C=CC(=O)N1CCN(c2nc(=O)n(-c3c(C(C)C)cccc3S(C)(=O)=O)c3nc(-c4cc(C#N)ccc4Cl)c(F)cc23)[C@@H](C)C1` [Example 64, (S)-3-(4-(4-acryloyl-2-methylpiperazin-1-yl)-6-fluoro-1-(2-isopropyl-6-(methylsulfonyl)phenyl)-2-oxo-1,2-dihydropyridino[2,3-d]pyrimidin-7-yl)-4-chlorobenzonitrile], the IC50 in series [2] (Homo sapiens, NCI-H358, 120 h) is 120 nM.
On the same count and under the same terms, the value for `C=CC(=O)N1CCN(c2nc(=O)n(-c3c(C(C)C)cccc3S(C)(=O)=O)c3nc(-c4ccnn4C)c(F)cc23)[C@@H](C)C1` [Example 68, (S)-4-(4-acryloyl-2-methylpiperazin-1-yl)-6-fluoro-1-(2-isopropyl-6-(methylsulfonyl)phenyl)-7-(1-methyl-1H-pyrazol-5-yl) pyridino [2,3-d] pyrimidin-2(1H)-one] was 2200 nM; that for `C=CC(=O)N1CCN(c2nc(=O)n(-c3c(C)cccc3S(C)(=O)=O)c3nc(-c4c(F)cccc4C(F)F)c(F)cc23)[C@@H](C)C1` [Example 9, 4-((S)-4-acryloyl-2-methylpiperazin-1-yl)-7-(2-(difluoromethyl)-6-fluorophenyl)-6-fluoro-1-(2-methyl-6-(methylsulfonyl)phenyl) pyridino [2,3-d] pyrimidin-2 (1H)-one] was 230 nM.
In turn, `C=CC(=O)N1C[C@H](C)N(c2nc(=O)n(-c3c(CC)cccc3S(C)(=O)=O)c3nc(-c4c(O)cccc4F)c(Cl)cc23)C[C@H]1C` (single isomer, unassigned) [Example 84B] showed an IC50 in series [2] of 6 nM.
In the case of `C=CC(=O)N1CCN(c2nc(=O)n(-c3c(C(C)C)ccnc3S(C)(=O)=O)c3nc(-c4c(F)cccc4OC(C)=O)c(F)cc23)[C@@H](C)C1` [Example 24], the IC50 in series [2] amounted to 28 nM. This IC50 is about 4.7-fold higher than that of the compound before.
The same measure, in the same setting: the value for `C=CC(=O)N1CCN(c2nc(=O)n(-c3c(C)cccc3S(C)(=O)=O)c3nc(-c4c(O)cccc4F)c(F)cc23)[C@@H](C)C1` (single isomer, unassigned) [Example 53B] was 66 nM; that for `C=CC(=O)N1CCN(c2nc(=O)n(-c3ccccc3S(C)(=O)=O)c3nc(-c4c(O)cccc4F)c(F)cc23)CC1CC#N` (stereo not shown) [Example 90, 2-(1-acryloyl-4-(6-fluoro-7-(2-fluoro-6-hydroxyphenyl)-1-(2-(methylsulfonyl)phenyl)-2-oxo-1,2-dihydropyridino [2,3-d]pyrimidin-4-yl)piperazin-2-yl) acetonitrile] was 1000 to 10000 nM.
The same measure, in the same setting: the value for `C=CC(=O)N1CCN(c2nc(=O)n(-c3c(C(C)C)ccnc3S(C)(=O)=O)c3nc(-c4c(O)cccc4F)c(F)cc23)[C@@H](C)C1` (single isomer, unassigned) [Example 16A] was 720 nM.
For the compound `C=CC(=O)N1CCN(c2nc(=O)n(-c3c(C)cccc3S(=O)(=O)N(C)C)c3nc(-c4c(O)cccc4F)c(F)cc23)[C@@H](C)C1` [Example 14], in series [2] (Homo sapiens, NCI-H358, 120 h), it took 360 nM to reach half-maximal inhibition (IC50).
